From patent publication US10106501B2, “Nuclear receptor modulators” (AbbVie Inc., priority 2015, dated 2018)

Target: T1, chimeric human RORγ-Gal4 receptor (Homo sapiens, UniProt P51449)
T1 sequence (P51449 269-508 limits assumed): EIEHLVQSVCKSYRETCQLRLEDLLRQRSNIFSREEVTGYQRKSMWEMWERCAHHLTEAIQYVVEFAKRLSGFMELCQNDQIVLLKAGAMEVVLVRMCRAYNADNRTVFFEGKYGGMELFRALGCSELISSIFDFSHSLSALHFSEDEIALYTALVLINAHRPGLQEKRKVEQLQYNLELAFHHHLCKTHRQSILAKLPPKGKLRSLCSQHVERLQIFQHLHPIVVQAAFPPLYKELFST
Assay: transient transactivation assay (RORγ-Gal4 luciferase reporter)
Assay type: cell-based
Conditions: Cos-7 cells transfected with RORγ-Gal4 and 5Gal4 pGL3 TK Luc reporter; overnight incubation; T0901317 at 10^-5 M as reference; read-out: IC50

| SMILES | IC50 [µM] |
| --- | --- |
| Cc1cc(C(F)(F)F)cc2c1nc(Cc1c(Cl)ccc(C(=O)N3C[C@@H]4[C@H](C3)[C@H]4C(=O)O)c1Cl)n2C [Example BL, (1R,5S,6r)-3-(2,4-dichloro-3-((1,4-dimethyl-6-(trifluoromethyl)-1H-benzo[d]imidazol-2-yl)methyl)benzoyl)-3-azabicyclo[3.1.0]hexane-6-carboxylic acid] | 1 to 10 |
| Cc1cc(C)c2nc(Cc3c(Cl)ccc(C(=O)N4CCOCC4)c3Cl)n(C)c2c1 [Example BO, (2,4-dichloro-3-((1,4,6-trimethyl-1H-benzo[d]imidazol-2-yl)methyl)phenyl)(morpholino)methanone] | 0.5 to 1 |
| Cc1cc(C(F)(F)F)cc2c1nc(C(=O)c1c(Cl)ccc(C(=O)N3CCOCC3)c1Cl)n2C [Example BS, (2,4-dichloro-3-(1,4-dimethyl-6-(trifluoromethyl)-1H-benzo[d]imidazole-2-carbonyl)phenyl)(morpholino)methanone] | 0.1 to 0.5 |
| CC(=O)n1c(Cc2c(Cl)ccc(C(=O)N3CCOCC3)c2Cl)cc2c(C)cc(C(F)(F)F)cc21 [Example D-2] | < 0.1 |
| Cc1cc(C(F)(F)F)cc2c1c(Cc1c(Cl)ccc(C(=O)N3C[C@@H]4[C@H](C3)[C@H]4C(=O)O)c1Cl)cn2C [Example F1-1] | < 0.1 |
| Cc1cc(C(F)(F)F)cc2c1c(Cc1c(Cl)ccc(C(=O)N3CC[C@H](C(=O)O)[C@H](C)C3)c1Cl)cn2C [Example F1-2] | < 0.1 |
| Cc1cc(C(F)(F)F)cc2c1c(Cc1c(Cl)ccc(C(=O)N3CC[C@@H](C(=O)O)[C@@H](C)C3)c1Cl)cn2C [Example F1-3] | < 0.1 |
| Cc1cc(C#N)cc2c1cc(Cc1c(Cl)ncc(C(=O)N3CCC(C4COC4)CC3)c1Cl)n2C [Example FC, 2-((2,4-dichloro-5-(4-(oxetan-3-yl)piperidine-1-carbonyl)pyridin-3-yl)methyl)-1,4-dimethyl-1H-indole-6-carbonitrile] | < 0.1 |
| COc1cc(C)c2cc(Cc3c(Cl)ccc(C(=O)N4CCC(CC(=O)O)CC4)c3Cl)n(C)c2c1 [Example FD, 2-(1-(2,4-dichloro-3-((6-methoxy-1,4-dimethyl-1H-indol-2-yl)methyl)benzoyl)piperidin-4-yl)acetic acid] | < 0.1 |
| Cc1cc(OC(F)F)cc2c1cc(Cc1c(Cl)ccc(C(=O)N3CCC(CC(=O)O)CC3)c1Cl)n2C [Example FF, 2-(1-(2,4-dichloro-3-((6-(difluoromethoxy)-1,4-dimethyl-1H-indol-2-yl)methyl)benzoyl)piperidin-4-yl)acetic acid] | < 0.1 |
| Cn1c(Cc2c(C3CC3)ccc(C(=O)N3CCC(CC(=O)O)CC3)c2Cl)cc2ccc(OC(F)(F)F)cc21 [Example FL, 2-(1-(2-chloro-4-cyclopropyl-3-((1-methyl-6-(trifluoromethoxy)-1H-indol-2-yl)methyl)benzoyl)piperidin-4-yl)acetic acid] | < 0.1 |
| Cn1c(Cc2c(Cl)ccc(C(=O)N3CCC(C(=O)O)CC3)c2Cl)cc2c(F)cc(C3CC3)cc21 [Example FN, 1-(2,4-dichloro-3-((6-cyclopropyl-4-fluoro-1-methyl-1H-indol-2-yl)methyl)benzoyl)piperidine-4-carboxylic acid] | < 0.1 |
| Cc1cc(C(F)(F)F)nc2c1cc(C(=O)c1c(Cl)ccc(C(=O)N3CC[C@@H](C(=O)O)[C@@H](C)C3)c1Cl)n2C [Example FX, (3R,4R)-1-(2,4-dichloro-3-(1,4-dimethyl-6-(trifluoromethyl)-1H-pyrrolo[2,3-b]pyridine-2-carbonyl)benzoyl)-3-methylpiperidine-4-carboxylic acid] | 0.1 to 0.5 |

Results, then the compound that gave them:

| IC50 [µM] | SMILES |
| --- | --- |
| 0.1 to 0.5 | Cc1ccc(C(=O)N2CCOCC2)c(C)c1Cc1nc2c(C)cc(Br)cc2n1C [Example BR, (3-((6-bromo-1,4-dimethyl-1H-benzo[d]imidazol-2-yl)methyl)-2,4-dimethylphenyl)(morpholino)methanone] |
| 1 to 10 | Cc1cc(C(N)=O)cc2c1nc(C(=O)c1c(Cl)ccc(C(=O)N3CCOCC3)c1Cl)n2C [Example BT, 2-(2,6-dichloro-3-(morpholine-4-carbonyl)benzoyl)-1,4-dimethyl-1H-benzo[d]imidazole-6-carboxamide] |
| < 0.1 | Cc1cc(C(F)(F)F)cc2c1nc(Cc1c(Cl)ccc(C(=O)N3CCC(CC(=O)O)CC3)c1Cl)n2C [Example BU, 2-(1-(2,4-dichloro-3-((1,4-dimethyl-6-(trifluoromethyl)-1H-benzo[d]imidazol-2-yl)methyl)benzoyl)piperidin-4-yl)acetic acid] |
| 0.1 to 0.5 | COCCC1CCN(Cc2ccc(Cl)c(Cc3nc4c(C)cc(C(F)(F)F)cc4n3C)c2Cl)CC1 [Example BW, 2-[[2,6-dichloro-3-[[4-(2-methoxyethyl)-1-piperidyl]methyl]phenyl]methyl]-1,4-dimethyl-6-(trifluoromethyl)benzimidazole] |
| 0.1 to 0.5 | Cc1c(Br)ccc2c1nc(Cc1c(Cl)ccc(C(=O)N3CCOCC3)c1Cl)n2C [Example CB, (3-((5-bromo-1,4-dimethyl-1H-benzo[d]imidazol-2-yl)methyl)-2,4-dichlorophenyl)(morpholino)methanone] |
| < 0.1 | CCn1c(Cc2c(Cl)ccc(C(=O)N3CCOCC3)c2Cl)cc2c(C)cc(C(F)(F)F)cc21 [Example D-1] |
| < 0.1 | Cc1cc(C#N)cc2c1cc(Cc1c(Cl)ncc(C(=O)N3CCC4(CCOC4)CC3)c1Cl)n2C [Example FB, 2-((2,4-dichloro-5-(2-oxa-8-azaspiro[4.5]decane-8-carbonyl)pyridin-3-yl)methyl)-1,4-dimethyl-1H-indole-6-carbonitrile] |
| < 0.1 | Cn1c(Cc2c(Cl)ccc(C(=O)N3CCC(CC(=O)O)CC3)c2Cl)cc2c(F)cc(C(F)(F)F)cc21 [Example FE, 2-(1-(2,4-dichloro-3-((4-fluoro-1-methyl-6-(trifluoromethyl)-1H-indol-2-yl)methyl)benzoyl)piperidin-4-yl)acetic acid] |
| < 0.1 | Cc1cc(C(F)(F)F)cc2c1cc(C(=O)c1c(Cl)ncc(C(=O)N3CCC(CC(=O)O)CC3)c1Cl)n2C [Example FG, 2-(1-(4,6-dichloro-5-(1,4-dimethyl-6-(trifluoromethyl)-1H-indole-2-carbonyl)nicotinoyl)piperidin-4-yl)acetic acid] |
| < 0.1 | Cc1cc(C(F)(F)F)cc2c1cc(Cc1c(Cl)cnc(C(=O)N3CCC(CC(=O)O)CC3)c1Cl)n2C [Example FH, 2-(1-(3,5-dichloro-4-((1,4-dimethyl-6-(trifluoromethyl)-1H-indol-2-yl)methyl)picolinoyl)piperidin-4-yl)acetic acid] |
| < 0.1 | Cn1c(Cc2c(Cl)ccc(C(=O)N3CCC(CC(=O)O)CC3)c2Cl)cc2ccc(OC(F)(F)F)cc21 [Example FI, 2-(1-(2,4-dichloro-3-((1-methyl-6-(trifluoromethoxy)-1H-indol-2-yl)methyl)benzoyl)piperidin-4-yl)acetic acid] |
| < 0.1 | Cc1nc(C(F)(F)F)cc2c1cc(Cc1c(Cl)ccc(C(=O)N3CCN(C4COC4)CC3)c1Cl)n2C [Example FJ, (2,4-dichloro-3-((1,4-dimethyl-6-(trifluoromethyl)-1H-pyrrolo[3,2-c]pyridin-2-yl)methyl)phenyl)(4-(oxetan-3-yl)piperazin-1-yl)methanone] |
| < 0.1 | CC(=O)Nc1cc(C)c2cc(Cc3c(Cl)ccc(C(=O)N4CCOCC4)c3Cl)n(C)c2c1 [Example FK, N-(2-(2,6-dichloro-3-(morpholine-4-carbonyl)benzyl)-1,4-dimethyl-1H-indol-6-yl)acetamide] |
| < 0.1 | Cn1c(Cc2c(Cl)ccc(C(=O)N3CCC(CC(=O)O)CC3)c2Cl)cc2c(F)cc(C3CC3)cc21 [Example FM, 2-(1-(2,4-dichloro-3-((6-cyclopropyl-4-fluoro-1-methyl-1H-indol-2-yl)methyl)benzoyl)piperidin-4-yl)acetic acid] |
| < 0.1 | Cc1cc(C(=O)N(C)C)cc2c1cc(Cc1c(Cl)ccc(C(=O)N3CCOCC3)c1Cl)n2C [Example FO, 2-[[2,6-dichloro-3-(morpholine-4-carbonyl)phenyl]methyl]-N,N,1,4-tetramethyl-indole-6-carboxamide] |
| < 0.1 | CNC(=O)c1cc(C)c2cc(Cc3c(Cl)ccc(C(=O)N4CCOCC4)c3Cl)n(C)c2c1 [Example FP, 2-[[2,6-dichloro-3-(morpholine-4-carbonyl)phenyl]methyl]-N,1,4-trimethyl-indole-6-carboxamide] |
| < 0.1 | Cc1cc(C(F)(F)F)cc2c1c(Cc1c(Cl)ccc(C(=O)N3CCC(C(=O)O)CC3)c1Cl)cn2C [Example FQ, 1-(2,4-dichloro-3-((1,4-dimethyl-6-(trifluoromethyl)-1H-indol-3-yl)methyl)benzoyl)piperidine-4-carboxylic acid] |
| < 0.1 | Cc1cn(Cc2c(Cl)cnc(C(=O)N3CCC(CC(=O)O)CC3)c2Cl)c2c(C)cc(C(F)(F)F)cc12 [Example FR, 2-(1-(3,5-dichloro-4-((3,7-dimethyl-5-(trifluoromethyl)-1H-indol-1-yl)methyl)picolinoyl)piperidin-4-yl)acetic acid] |
| < 0.1 | COCCC1CCN(C(=O)c2ccc(Cl)c(Cc3cc4c(C)cc(C(F)(F)F)nc4n3C)c2Cl)CC1 [Example FT, (2,4-dichloro-3-((1,4-dimethyl-6-(trifluoromethyl)-1H-pyrrolo[2,3-b]pyridin-2-yl)methyl)phenyl)(4-(2-methoxyethyl)piperidin-1-yl)methanone] |
| < 0.1 | Cc1cc(C(F)(F)F)nc2c1cc(C(=O)c1c(Cl)ccc(C(=O)N3CCC(C#N)CC3)c1Cl)n2C [Example FV, 1-(2,4-dichloro-3-(1,4-dimethyl-6-(trifluoromethyl)-1H-pyrrolo[2,3-b]pyridine-2-carbonyl)benzoyl)piperidine-4-carbonitrile] |
